One assay deals with IR-A in IM-9 lymphocytes. In words: Competitive binding assay for IR-A with [125I]-monoiodotyrosyl-TyrA14-insulin. Details: species or system human. The conditions noted are these: tracer 125I-insulin, only at the concentrations > 10^-6M, n ≥ 3. The text has this:
(§1) We also tested whether non-labeled preptins can bind to any of receptors for IGF2 (i.e. IR, IGF1R and IGF2R) in competitive binding assays, employing ^125I-labeled human insulin, IGF1 or IGF2. To determine binding to the IGF1R, we used mouse fibroblasts transfected with human IGF1R and with deleted mouse IGF1R (R+39 cells), according to Hexnerova et al.. We used non-transfected 3T3 fibroblasts to determine binding to IGF2R, because these cells contain essentially only IGF2R [5] and we used human IM-9 lymphocytes to determine affinity for IR-A [31].
(§2) Binding affinities of ligands for IGF1R were determined with [^125I]-Iodotyrosyl-IGF1 (2,614 Ci/mmol) prepared in the IOCB radioisotope laboratory by a procedure described in Kertisova et al.. Binding affinities for IR-A were determined with [^125I]-monoiodotyrosyl-TyrA14-insulin (2,200 Ci/mmol), prepared as described by Asai et al.. […]
(§3) The dissociation constant (Kd) values were determined with GraphPad Prism 8, using a nonlinear regression method, a one-site fitting program and considering the potential depletion of free ligand. […] Relative binding affinities were calculated as (Kd of the native hormone/Kd of analog) × 100 (in %). The relative binding affinity S.D. values of analogs were calculated as S.D. = Kd of the native hormone/Kd of peptide ×100 × √[(S.D. native/Kd native)^2 + (S.D. analog/Kd analog)^2].

Assay [1] deals with intracellular calcium in U-2 OS osteoblasts. In words: Changes in intracellular calcium, U-2 OS osteoblasts. The conditions noted are these: U-2 OS cells; 10^−4 M; Fluo-8 fluorescence, (Fmax−F0)/F0; one-way ANOVA. The format is cell-based, human. How it is done: (§4) The day before the experiment, U-2 OS, MC3T3-E1, MIN6 and cAMP-HEK cells were seeded 6 000 (for osteoblastic cell lines U-2 OS, MC3T3-E1), 10 000 (for cAMP-HEK cells) or 30 000 (MIN6) cells per well in a black 384-well format micro plate with transparent bottom (Cat.#: 142761, Nunc, Thermo Fisher Scientific, USA). On the next day, the cultivation media was exchanged for assay buffer, consisting of HBSS (Cat.#: H6648-500ML, Sigma-Aldrich, Merck, Germany), 20 mM HEPES (Cat.#: L0180-100, Biowest, France), 2.5 mM Probenecid (Cat.#: P8761, Sigma-Aldrich, Merck, Germany), adjusted for pH 7.4 and supplemented with 4.77 μM CalciFluor™ Fluo-8, AM (Cat.#: 1345980-40-6, Santa Cruz Biotechnology, USA). After 45 min incubation with assay buffer in 37°C and 5% CO2, the cells were incubated at RT in a dark place for another 15 minutes. After this time, preptin and its analogs were added by the Agilent Bravo Automated Liquid Handling Platform (Agilent Technologies, USA). The kinetics were measured by the Spark® multimode reader from Tecan (Tecan Group Ltd., Switzerland) for 10 min (approximately 45 cycles, excitation 485 nm, emission 535 nm, band width 10 nm). Before each kinetics, the background fluorescence (F0) was measured and the result was calculated as (Fmax−F0)/F0, where Fmax corresponds to the maximum response upon stimulation by the compounds. Each compound was tested in concentration 10^−4 M.

Assay [2] concerns intracellular calcium in MIN6 pancreatic beta cells. In words: Changes in intracellular calcium, MIN6 cells. The format is cell-based, mouse. The settings on record: 10^−4 M, Fluo-8 fluorescence, (Fmax−F0)/F0, one-way ANOVA. The procedure: as §4, with “Each compound was tested in concentration 10^−4 M.” left out
In general terms: A change in cytosolic calcium serves as a functional read-out for many receptors and channels.

Assay [3] concerns human primary osteoblasts. The conditions noted are these: 8 days, ref [17] Bosetti et al.; cited from earlier work.
The test system of a further assay is hBMSC-TERT. Nature of the assay: Osteoblast differentiation of hBMSC-TERT, alkaline phosphatase (ALP) activity assay. The conditions noted are these: for ALP activity normalized to cell viability, compared to unstimulated cells: 100 ng/ml, 500 ng/ml and 1 ug/ml, day 7 of OB differentiation, changes not significant; for osteoblast differentiation of hBMSCs: summary in the conclusions. It is filed as cell-based, human. How it is done: hBMSC-TERT were plated at a density of 20 000 cells/cm^2 (Alizarin Red S staining) and 5 000 cells/well (ALP activity assay) in MEM medium (Gibco), supplemented with 10 % FBS (Gibco) and 1 % P/S (Gibco). One day after seeding, the medium was replaced with OB induction medium, composed of basal medium, supplemented with 10 mM B-glycerophosphate (Sigma-Aldrich), 10 nM dexamethasone (Sigma-Aldrich), 50 μg/mL vitamin C (Sigma-Aldrich), 10 nM vitamin D3 (Sigma-Aldrich) and treated with 100 ng/ml, 500 ng/ml and 1 ug/ml IGF2, IGF1, IGF2, preptin or vehicle (acetic acid) as a control. The medium was changed every other day for 7 days (ALP activity assay) or 10 days (Alizarin Red S staining).
ALP activity and cell viability assay were quantified at Day 7 of OB differentiation, in order to normalize the ALP activity data to the number of viable cells.
Cell viability assay was measured using a Cell Titer-Blue Assay Reagent (Promega) at fluorescence intensity (579Ex/584Em). ALP activity was detected by absorbance at 405 nm, using p-nitrophenyl phosphate (Sigma-Aldrich) as substrate.

Assay [4] has as its system cAMP in U-2 OS osteoblasts. Nature of the assay: Changes in cAMP levels (GloSensor), U-2 OS osteoblasts. The conditions noted are these: 10^−4 M, GloSensor luminescence, (Lmax−L0)/L0, forskolin positive control. The format is cell-based, human. The procedure:
Intracellular cAMP concentration was measured using Promega’s Glosensor on osteoblasts U-2 OS, pancreatic β-cells MIN6 and control cAMP-HEK cells (with stable transfection of F22 plasmid as described above). U-2 OS cells were transfected with F22 plasmid (pGloSensor™-22F, Promega, USA, 6.1 μg of plasmid per 1 million cells) using X-tremeGENE (Sigma-Aldrich, Germany). The ratio of plasmid and transfection reagent was 1:3 (plasmid: X-tremeGENE, m/v). The MIN6 cells were transfected with F22 plasmid in the same concentration as U-2 OS using electroporation by the Invitrogen™ Neon™ Transfection System Instrument (Thermo Fisher Scientific, USA, transfection conditions: 1400 V, 20 ms, 1 pulse). […]
After 24 hours (U-2 OS and cAMP-HEK cells) or 48 hours, respectively (MIN6 cells), cultivation media was changed for assay buffer (HBSS buffer with 20 mM HEPES and 2% (v/v) (cAMP-HEK, U-2 OS cells) or 6% (v/v), respectively (MIN6 cells), GloSensor™ reagent stock solution). The plate was incubated in the dark for 1–2 hours at RT and luminescence was measured until a stable signal was observed (L0). […] The luminescence kinetics were measured by Spark® for 30 min. The result was calculated as (Lmax−L0)/L0, where Lmax corresponds to the maximum response upon stimulation by the compounds. […]

Assay [5] concerns phosphorylation of Akt in MC3T3-E1 preosteoblasts. In words: Stimulation of phosphorylation of Akt, MC3T3-E1 preosteoblasts. It is filed as cell-based, mouse. The settings on record: 10^-8M, 5 min at RT, Western blot, n = 4, one-way ANOVA. How it is done:
For measuring activation of intracellular signaling pathways, 40 000 of MC3T3-E1, U-2 OS and 3T3-R- cells per well and 100 000 of MIN6 cells per well were seeded in a 24-well plate, two days before stimulation. Cells’ stimulations were done after overnight starvation in a clean culture medium without serum. Cells were stimulated using preptins and their analogs at 10^-8M concentration for 5 min at RT. Cells were washed with PBS and froze immediately. Samples for immunoblots were prepared in Sample lysis buffer (62,5 mM Tris/HCl, 2 % SDS (w/v), 10 % glycerol (v/v), 0,01 % Brom-phenol Blue (w/v), 0,1M DTT, 50mM NaF, 1mM Na3VO4, 0,5 % protease inhibitory complex (v/v), pH 6,8).
Western blots were similarly used to study signaling pathways activated by our preptins in all cell lines mentioned above. Proteins were routinely analyzed using immunoblotting. […] The data are expressed as the contribution of target phosphorylation relative to non-stimulated cells (MC3T3-E1, U-2 OS, 3T3-R- and MIN6). Mean ± S.D. (n = 4) values were calculated. The significance of the changes in stimulation of phosphorylation in relation to unstimulated cells was calculated, using the One-way-ANOVA comparing all preptins and their analogs versus control non-stimulated cells.

The test system of the next assay is human IGF1R. In words: Competitive binding assay for IGF1R with [125I]-Iodotyrosyl-IGF1. The settings on record: fibroblasts with IGF1R (R+39 cells); tracer 125I-IGF1; n ≥ 3.
Text: as §1, §2, §3

In assay [6] the test system is intracellular calcium in U-2 OS cells. The conditions noted are these: previous paper, different method, ref [21]; cited from earlier work. The text has this: It is well known that Ca^2+ regulates numerous physiological cellular processes as a second messenger. It plays a vital role in the regulation of cell proliferation, and its increased level is critical for secretagogue-induced insulin release in pancreatic beta cells. […] If preptin or its analogs were proficient insulin secretagogues or had any effect on bone cells, we would e ...

In the next assay the test system is IGF2R. In words: Competitive binding assay for IGF2R with [125I]-monoiodotyrosyl-Tyr2-IGF2. Details: species or system mouse. The conditions noted are these: R- cells with IGF2R; tracer 125I-IGF2; n ≥ 3.
Text: as §1, §2, §3

The source of these data is PMC11392399, “The final walk with preptin” (PLOS ONE, 2024).

No end group written: not given here.

Consider “DVSTPPTVLPDNFPRYPVGKFFQYDTWKQSTQRL [peptide 1, native human preptin]”, for which the “binding to IR-A” value in the assay on IR-A in IM-9 lymphocytes was “weak binding”.

Consider “DVSTSQAVLPDDFPRYPVGZFFQYDTWRQSAGRL [peptide 15, Mouse preptin with Aib (Z) at position 20]”, for which the “changes in intracellular calcium relative to non-stimulated cells” value in [1] was “significant increase in intracellular calcium levels”.

Take “DVTTSQAVLPDDFPRY [peptide 17, Mouse preptin fragment]”: the “changes in intracellular calcium relative to non-stimulated cells” value in [2] is listed as “completely inhibited calcium secretion”.

“FPRYPVGKFFQYNTW-NH2 [peptide 18, Mouse preptin fragment, amino acids 13–27, amidated C-end]”: in [1], the “changes in intracellular calcium relative to non-stimulated cells” value is listed as “significant increase in intracellular calcium levels”.

Take “IGF2: insulin-like growth factor 2, comparator hormone”: the “change in ALP activity” value in assay [3] was “no significant effects”. In addition, in the assay on hBMSC-TERT, the “ALP activity normalized to cell viability, compared to unstimulated cells” value is listed as “signs of higher ALP activity” and the “osteoblast differentiation of hBMSCs” value is “neither preptin nor IGF2 significantly increased”.

As for “PVGKFFQYDTWKQSTQRL [peptide 3, Human preptin fragment]”, the “binding to IR-A” value with IR-A in IM-9 lymphocytes is listed as “weak binding”.

Consider “TWKQSTQRL-NH2 [peptide 13, Human preptin fragment]”, for which the “changes in cAMP levels relative to non-stimulated cells” value in assay [4] was “significant decrease of cAMP”. The “phosphorylation of Akt relative to non-stimulated cells” value in [5] is reported as “Significantly lower phosphorylation of Akt”.

As for “WKQSTQRL-NH2 [peptide 12, Human preptin fragment]”, the “phosphorylation of Akt relative to non-stimulated cells” value in [5] is “Significantly lower phosphorylation of Akt”.

For “preptin: 34-amino acid peptide derived from pro-IGF2; species or peptide number not stated at the place (DVSTPPTVLPDNFPRYPVGKFFQYDTWKQSTQRL; Preptin; UniProt P01344 93-126, looked up)”, the “displacement of native ligand from IGF1R” value in the assay with human IGF1R was “did not displace native ligands even at the highest concentrations used”. The “changes in intracellular calcium levels” value in assay [6] is listed as “able to induce changes in intracellular calcium levels”. Also, in [3], the “change in ALP activity” value is “no significant effects”. The “displacement of native ligand from IGF2R” value in the assay on IGF2R is on record as “did not displace native ligands even at the highest concentrations used”. Moreover, in the assay on hBMSC-TERT, the “ALP activity normalized to cell viability, compared to unstimulated cells” value was “signs of higher ALP activity” and the “osteoblast differentiation of hBMSCs” value is reported as “neither preptin nor IGF2 significantly increased”.
